Assay [1] has as its system cultured T cell from melittin-immunized mice. Put plainly: Murine lymph node proliferation assay ([3H]thymidine uptake). It counts as cell-based, Balb/c mice. To be noted: T cells from mice primed with melittin; 10, 1.0 or 0.1 μg/mL; FIG. 8. The method, then:
Femal Balb/c mic (6-8 weeks old; Jackson Laboratory, Bar Harbor, Me.) were obtained and housed at the La Jolla Pharmaceutical animal facility according to National Institutes of Health guidelines. Food and water was provided ad libitum. Balb/c mice were immunized in each hind footpad with 50 μg of melittin molecule in Complete Freund's Adjuvant (CFA) (Sigma Chemical Co., St. Louis, Mo.). Popliteal lymph nodes were harvested aseptically seven days later. Lymph nodes were gently dissociated by teasing the cells through a 50 mesh sieve screen. The single cell suspension was washed in RPMI-1640 (Irvine Scientific, Irvine Calif.) containing glutamine, penicillin and streptomycin. 5×10^5 cells in RPMI medium supplemented with 10% fetal bovine serum (FCS) in quadruplicate wells of round bottom 96-well Corning microtitration plates were-cultured with melittin or a melittin peptide at 10, 1.0 or 0.1 μg/mL. Cells in the positive control wells were cultured with murine interleukin 2 (IL-2) at 100 or 50 U/mL, PHA (phytohemagglutinin) at 1 μg/mL. The negative control wells contained lymph node cells in RPM-1640 and 10% FCS. The cells were cultured for 4 days in a 37° C. incubator with 5% CO2. Each well was pulsed with 1 μCi of [^3H]thymidine (ICN Biochemicals, Costa Mesa, Calif.) for an additional 18 hours. Cells were harvested onto a glass fiber filter mat using a semiautomatic cell harvester (Scatron, Sterling, Va.). Incorporation of [^3H]thymidine was determined by liquid scintillation. The results were expressed as average counts per minute.

Assay [2] relates to peptide-specific pfc. Put plainly: pfc assay: melittin peptide-specific IgG pfc in spleens of mice primed and boosted with melittin. It counts as in vivo, C57BL/6 mice. Particulars: Table 7. The method, then: Female C57BL/6 mice, ages 5 to 8 weeks were purchased from The Jackson Laboratory, Bar Harbor, Me. Animals were maintained and treated accordingly to National Institutes of Health guidelines.
Mice were primed by an i.p. injection containing 5 μg of melittin precipitated on alum and 2×10^9 B. pertussis (Michigan Department of Public Health, Lansing, Mich.) as an adjuvant. The mice were boosted with 5 μg of melittin, i.p., in PBS.
Sheep Red Blood Cells (SRBC) (Colorado Serum Co., Denver, Colo.) were conjugated with melittin-peptide […] using carbodiimide. Fresh SRBC (less than 2 weeks old) were washed four times with cold saline and one time with mannitol (0.35 M mannitol, 0.01 M NaCl). The SRBC were suspended in mannitol to a concentration of 10% (v/v). 100 μL of mannitol containing 30 μg of melittin peptide #3 were added to 1 mL aliquots of 10% SRBC which were then incubated on ice for 10 minutes. 100 μL of a 100 mg/mL solution of 1-ethyl-3 (3-dimethylaminopropyl)-carbodiimide HCl (EDCI) was then added and incubated on ice for 30 minutes. The SRBC were washed twice with Balanced Salt Solution (BSS) (Irvine Scientific Co, Irvine, Calif.) and resuspended to 10% (v/v). Lyophilized guinea pig complement (GIBCO, New York, N.Y.) was reconstituted with BSS and then diluted 1:3 with BSS. One mL of the diluted guinea pig complement was added to 3 mL of conjugated SRBC. Rabbit anti-mouse IgG was added to give a final dilution of 1:100 of the rabbit antiserum. This concentration was predetermined to inhibit all IgM pfc while enhancing the maximum number of IgG pfc. An equal volume of this complement/anti-mouse IgG/SRBC suspension was mixed with a cell suspension of mouse spleen cells taken from a single mouse. 50 μL of each mixture was transferred to the chambers of a Cunningham slide (three chambers per slide). The edges were then sealed with paraffin and incubated at 37° C. for one hour. The number of plaques per chamber was counted with the aid of a dissecting microscope. Each spleen suspension was also assayed using non-conjugated SRBC as a control. The number of viable cells, in each spleen cell suspension, was determined. The number of pfc per 10^6 spleen cells was determined for each chamber and the mean of the triplicates calculated. The number of pfc for non-conjugated SRBC was subtracted from the number of pfc for conjugated SRBC to determine the number of peptide-specific pfc.
Two different tolerogens were constructed to determine if the orientation of the peptide on the PEG conjugate affects its ability to induce tolerance. The peptide was covalently bound to valency platform molecule 3 through its C-terminal end to make melittin conjugate 3. Groups (3/group) of mice primed with melittin were treated, i.p., with conjugates or with saline. Five days later all of the mice, including the non-treated control group, were boosted with […] of melittin. Six days later the mice were sacrificed, their spleens were harvested and the number of peptide specific pfc determined. As-illustrated in Table 8, both orientations were effective in reducing the number of peptide-specific pfc/10^6 spleen cells in mice primed and boosted with the parent protein Melittin.
Three different conjugates, each with a different number of peptides per PEG conjugate, were constructed to determine if the ratio of peptides to PEG molecule was important. Conjugate 1 had only two peptides per PEG conjugate. Another had four peptides per PEG conjugate (Conjugate 2). The third had eight peptides per PEG conjugate (Conjugate 5). Groups (3/group) of mice primed with melittin were treated, i.p., with the different conjugates or with saline. Five days later all of the nice, including the non-treated control group, were boosted with 5 μg of melittin. Six days later, the mice were sacrificed, their spleens were harvested and the number of peptide-specific pfc determined.

No end group written: not given here.

For `CC[C@H](C)[C@H](NC(=O)CN)C(=O)NCC(=O)N[C@@H](C)C(=O)N[C@H](C(=O)N[C@@H](CC(C)C)C(=O)N[C@@H](CCCCN)C(=O)N[C@H](C(=O)N[C@@H](CC(C)C)C(=O)N[C@H](C(=O)N[C@H](C(=O)NCC(=O)N[C@@H](CC(C)C)C(=O)N1CCC[C@H]1C(=O)N[C@@H](C)C(=O)N[C@@H](CC(C)C)C(=O)N[C@H](C(=O)N[C@@H](CO)C(=O)N[C@@H](Cc1c[nH]c2ccccc12)C(=O)N[C@H](C(=O)N[C@@H](CCCCN)C(=O)N[C@@H](CCCNC(=N)N)C(=O)N[C@@H](CCCCN)C(=O)N[C@@H](CCCNC(=N)N)C(=O)N[C@@H](CCC(N)=O)C(=O)N[C@@H](CCC(N)=O)C(N)=O)[C@@H](C)CC)[C@@H](C)CC)[C@@H](C)O)[C@@H](C)O)C(C)C)C(C)C` [Melittin, reference compound], in assay [1], the “T cell proliferation (in words)” value is given as “showed T cell proliferation”.

“Cys-Ile-Ser-Trp-Ile-Lys-Arg-Lys-Arg-Gln-Gln-Gly (CISWIKRKRQQG; printed: Cys-Ile-Ser-Trp-Ile-Lys-Arg-Lys-Arg-Gln-Gln-Gly) [Melittin Peptide #5]”: the “T cell proliferation (in words)” value in assay [1] was “showed T cell proliferation”.

Turning to IKRKRQQG [Melittin Peptide #1], the “T cell proliferation (in words)” value in assay [1] was “no significant T cell proliferation”.

Take “Ile-Ser-Trp-Ile-Lys-Arg-Lys-Arg-Gln-Gln-Gly (ISWIKRKRQQG; printed: Ile-Ser-Trp-Ile-Lys-Arg-Lys-Arg-Gln-Gln-Gly) [Melittin Peptide #4]”: the “T cell proliferation (in words)” value in assay [1] is “showed T cell proliferation”.

“N,N′-Bis-(3,5-bis-(iodoacetamido)benzoyl) derivative of α,ω-bis-(N-2-aminoethylcarbamoyl)polyethyleneglycol [Compound 3]”: the “% Reduction” value is on record as 67.3% in assay [2] (250 μg/mouse i.p.), 83.3% in assay [2] (500 μg/mouse i.p.) and 86.8% in assay [2] (1000 μg/mouse i.p.). For the same molecule, the “Peptide specific pfc per 10^6 spleen cells (Mean and S.D.)” value in assay [2] (250 μg/mouse i.p.) is given as 957 (298) pfc per 10^6 spleen cells; in assay [2] (500 μg/mouse i.p.), 489 (one mouse) pfc per 10^6 spleen cells; in assay [2] (1000 μg/mouse i.p., boost 5 days later, spleens 6 days after boost), 386 (85) pfc per 10^6 spleen cells.

For the molecule SWIKRKRQQG [Melittin Peptide #3], in assay [1], the “T cell proliferation (in words)” value is recorded as “showed T cell proliferation”.

For WIKRKRQQG [Melittin Peptide #2], the “T cell proliferation (in words)” value in assay [1] was “no significant T cell proliferation”.
